The target in assay [1] is Btk (Homo sapiens (Human), UniProt Q06187). The experiment in a line: Bruton's Tyrosine Kinase (Btk) inhibition assay (FRET BTK). Format: biochemical.
The subject of assay [2] is B cells in human whole blood (CD69 expression). The assay is described as follows: Inhibition of B cell activation in whole blood measured by CD69 expression. To be noted: anti-IgM stimulation, CD69-positive CD20-positive cells. It counts as cell-based. On the procedure:
Inhibition of B Cell Activation in Whole Blood Measured by CD69 Expression
A procedure to test the ability of Btk inhibitors to suppress B cell receptor-mediated activation of B cells in human blood is as follows:
Human whole blood (HWB) is obtained from healthy volunteers, with the following restrictions: 24 hr drug-free, non-smokers. Blood is collected by venipuncture into Vacutainer tubes anticoagulated with sodium heparin. Test compounds are diluted to ten times the desired starting drug concentration in PBS (20×), followed by three-fold serial dilutions in 10% DMSO in PBS to produce a nine point dose-response curve. 5.5 μl of each compound dilution is added in duplicate to a 2 ml 96-well V bottom plate (Analytical Sales and Services, #59623-23); 5.5 μl of 10% DMSO in PBS is added to control and no-stimulus wells. HWB (100 μl) is added to each well, and after mixing the plates are incubated at 37 C, 5% CO2, 100% humidity for 30 minutes. Goat F(ab′)2 anti-human IgM (Southern Biotech, #2022-14) (10 μl of a 500 μg/ml solution, 50 μg/ml final concentration) is added to each well (except the no-stimulus wells) with mixing and the plates are incubated for an additional 20 hours.
At the end of the 20 hour incubation, samples are incubated with florescent-probe-labeled anti-bodies (15 μl PE Mouse anti-Human CD20, BD Pharmingen, #555623, and/or 20 ul APC Mouse anti-Human CD69, BD Pharmingen #555533) for 30 minutes, at 37 C, 5% CO2, 100% humidity. Included are induced control, unstained and single stains for compensation adjustments and initial voltage settings. Samples are then lysed with 1 ml of 1× Pharmingen Lyse Buffer (BD Pharmingen #555899), and plates are centrifuged at 1800 rpm for 5 minutes. Supernatants are removed via suction and the remaining pellets are lysed again with another 1 ml of 1× Pharmingen Lyse Buffer, and plates are spun down as before. Supernatants are aspirated and remaining pellets are washed in FACs buffer (PBS+1% FBS). After a final spin, the supernantants are removed and pellets are resuspended in 180 μl of FACs buffer. Samples are transferred to a 96 well plate suitable to be run on the HTS 96 well system on the BD LSR II flow cytometer.
Using appropriate excitation and emission wavelengths for the fluorophores used, data are acquired and percent positive cell values are obtained using Cell Quest Software. Results are initially analyzed by FACS analysis software (Flow Jo). […] The IC50 values are calculated using XLfit software version 3, equation 201.

For 23 compounds, IC50 results are on record in patent US8729078B2, “Inhibitors of bruton's tyrosine kinase” (Hoffmann-La Roche Inc., priority 2011, dated 2014).

Structures are written as SMILES.

Chain of Btk (Q06187 whole entry): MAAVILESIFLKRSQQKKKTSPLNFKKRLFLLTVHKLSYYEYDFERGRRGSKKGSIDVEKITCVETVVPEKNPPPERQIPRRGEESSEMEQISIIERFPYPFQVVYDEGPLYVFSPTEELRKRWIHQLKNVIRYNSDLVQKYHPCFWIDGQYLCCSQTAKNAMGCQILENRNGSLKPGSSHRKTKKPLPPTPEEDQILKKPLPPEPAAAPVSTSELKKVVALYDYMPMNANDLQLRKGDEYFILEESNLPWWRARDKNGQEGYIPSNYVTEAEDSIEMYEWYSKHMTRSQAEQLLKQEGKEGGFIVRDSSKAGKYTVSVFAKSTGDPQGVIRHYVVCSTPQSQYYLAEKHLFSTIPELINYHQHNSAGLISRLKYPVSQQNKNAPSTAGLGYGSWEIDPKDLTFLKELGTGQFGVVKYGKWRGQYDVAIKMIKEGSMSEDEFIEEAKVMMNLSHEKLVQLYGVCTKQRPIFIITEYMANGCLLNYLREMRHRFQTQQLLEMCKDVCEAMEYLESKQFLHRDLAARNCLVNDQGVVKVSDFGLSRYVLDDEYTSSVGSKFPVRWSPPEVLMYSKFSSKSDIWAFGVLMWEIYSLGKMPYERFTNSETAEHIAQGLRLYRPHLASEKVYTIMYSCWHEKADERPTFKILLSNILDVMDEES

On to `CC(C)(C)c1ccc2c(=O)n(-c3cccc(-c4c[nH]c(C(N)=O)c4)c3CO)ncc2c1` [Compound I-3, 4-[3-(6-tert-Butyl-1-oxo-1H-phthalazin-2-yl)-2-hydroxymethyl-phenyl]-1H-pyrrole-2-carboxylic acid amide], for which the figures for the concentration for half-maximal inhibition (IC50) in assay [1] and in assay [2] were 0.027 µM and over 5 µM, respectively.

`Cn1cc(-c2cccc(-n3ncc4cc(C(C)(C)C)ccc4c3=O)c2CO)cc1C(N)=O` [Compound I-4, 4-[3-(6-tert-Butyl-1-oxo-1H-phthalazin-2-yl)-2-hydroxymethyl-phenyl]-1-methyl-1H-pyrrole-2-carboxylic acid amide]: the half-inhibitory concentration (IC50) in assay [1] amounted to 0.0116 µM; in assay [2], 3.6 µM.

In assay [2], `Cn1c(C(N)=O)ccc1-c1cccc(-n2ncc3cc(C(C)(C)C)ccc3c2=O)c1CO` [Compound I-5, 5-[3-(6-tert-Butyl-1-oxo-1H-phthalazin-2-yl)-2-hydroxymethyl-phenyl]-1-methyl-1H-pyrrole-2-carboxylic acid amide] gave a half-maximal inhibitory concentration (IC50) of 4.37 µM.

Regarding `Cc1nc(-c2cccc(-n3ncc4cc(C(C)(C)C)ccc4c3=O)c2CO)oc1C(N)=O` [Compound I-6, 2-[3-(6-tert-Butyl-1-oxo-1H-phthalazin-2-yl)-2-hydroxymethyl-phenyl]-4-methyl-oxazole-5-carboxylic acid amide], the results for the IC50 in assay [1] and in assay [2] were 1.26 µM and over 5 µM, respectively.

On to `CC(C)(C)c1cc(F)c2c(=O)n(-c3cccc(-c4nc(C(N)=O)cs4)c3CO)ncc2c1` [Compound I-7, 2-[3-(6-tert-Butyl-8-fluoro-1-oxo-1H-phthalazin-2-yl)-2-hydroxymethyl-phenyl]-thiazole-4-carboxylic acid amide], for which the figures for the IC50 in assay [1] and in assay [2] were 0.13 µM and over 5 µM, respectively.

Consider `Cn1cc(-c2cccc(-n3ncc4cc(C(C)(C)C)cc(F)c4c3=O)c2CO)nc1C(N)=O` [Compound I-8, 4-[3-(6-tert-Butyl-8-fluoro-1-oxo-1H-phthalazin-2-yl)-2-hydroxymethyl-phenyl]-1-methyl-1H-imidazole-2-carboxylic acid amide], for which the concentration for half-maximal inhibition (IC50) was found to be 0.0182 µM in assay [1] and 1.91 µM in assay [2].

For `Cn1cc(-c2cccc(-n3ncc4cc(C(C)(C)C)cc(F)c4c3=O)c2CO)cc1C(N)=O` [Compound I-9, 4-[3-(6-tert-Butyl-8-fluoro-1-oxo-1H-phthalazin-2-yl)-2-hydroxymethyl-phenyl]-1-methyl-1H-pyrrole-2-carboxylic acid amide], the IC50 in assay [1] came out at 0.00251 µM; in assay [2], 1.26 µM.

As for `CC(C)(C)c1cc(F)c2c(=O)n(-c3cccc(-c4ccc(C(N)=O)o4)c3CO)ncc2c1` [Compound I-10, 5-[3-(6-tert-Butyl-8-fluoro-1-oxo-1H-phthalazin-2-yl)-2-hydroxymethyl-phenyl]-furan-2-carboxylic acid amide], the half-inhibitory concentration (IC50) in assay [1] was 0.833 µM; in assay [2], over 5 µM.

Take `CC(C)(C)c1cc(F)c2c(=O)n(-c3cccc(-c4coc(C(N)=O)c4)c3CO)ncc2c1` [Compound I-11, 4-[3-(6-tert-Butyl-8-fluoro-1-oxo-1H-phthalazin-2-yl)-2-hydroxymethyl-phenyl]-furan-2-carboxylic acid amide]: the concentration for half-maximal inhibition (IC50) in assay [1] is 0.0513 µM; in assay [2] it was over 0.5 µM.

For `Cn1cc(-c2cccc(-n3ncc4cc(C(C)(C)C)cc(CO)c4c3=O)c2CO)cc1C(N)=O` [Compound I-12, 4-[3-(6-tert-Butyl-8-hydroxymethyl-1-oxo-1H-phthalazin-2-yl)-2-hydroxymethyl-phenyl]-1-methyl-1H-pyrrole-2-carboxylic acid amide], the half-inhibitory concentration (IC50) in assay [1] is 0.696 µM; in assay [2] it was over 0.5 µM.

Consider `CN1Cc2cc(C(C)(C)C)ccc2C(=O)N1c1cccc(-c2cc(C(N)=O)n(C)c2)c1CO` [Compound I-14, 4-[3-(6-tert-Butyl-3-methyl-1-oxo-3,4-dihydro-1H-phthalazin-2-yl)-2-hydroxymethyl-phenyl]-1-methyl-1H-pyrrole-2-carboxylic acid amide], for which the 50% inhibitory concentration (IC50) in assay [1] amounted to 0.0267 µM; in assay [2], 4.74 µM.

`CC(C)(C)c1cc(F)c2c(=O)n(-c3cccc(-n4cc(C(N)=O)c5ccccc54)c3CO)ncc2c1` [Compound I-17, 1-[3-(6-tert-Butyl-8-fluoro-1-oxo-1H-phthalazin-2-yl)-2-hydroxymethyl-phenyl]-1H-indole-3-carboxylic acid amide] yielded an IC50 in assay [2] of 2.66 µM.

`CC(C)(C)c1ccc2c(=O)n(-c3cccc(-n4cc(C(N)=O)c5ccccc54)c3CO)ncc2c1` [Compound I-18, 1-[3-(6-tert-Butyl-1-oxo-1H-phthalazin-2-yl)-2-hydroxymethyl-phenyl]-1H-indole-3-carboxylic acid amide]: the IC50 in assay [2] came to 10.7 µM.

The compound `CC(C)(C)c1ccc2c(=O)n(-c3cccc(-n4cc(C(N)=O)c(Nc5ccc(C(=O)N6CCOCC6)cc5)n4)c3CO)ncc2c1` [Compound I-19, 1-[3-(6-tert-Butyl-1-oxo-1H-phthalazin-2-yl)-2-hydroxymethyl-phenyl]-3-[4-(morpholine-4-carbonyl)-phenylamino]-1H-pyrazole-4-carboxylic acid amide] displayed a 50% inhibitory concentration (IC50) in assay [2] of 0.048 µM.

The compound `CC(C)(C)c1cc(F)c2c(=O)n(-c3cccc(-n4cc(C(N)=O)c(Nc5ccc(C(=O)N6CCOCC6)cc5)n4)c3CO)ncc2c1` [Compound I-20, 1-[3-(6-tert-Butyl-8-fluoro-1-oxo-1H-phthalazin-2-yl)-2-hydroxymethyl-phenyl]-3-[4-(morpholine-4-carbonyl)-phenylamino]-1H-pyrazole-4-carboxylic acid amide] came in with a concentration for half-maximal inhibition (IC50) in assay [2] of 0.01 µM.

In assay [2], `CC(C)(C)c1cc(F)c2c(=O)n(-c3cccc(-n4cc(C(N)=O)c(Nc5ccc(C(=O)N6CCOCC6)cc5)n4)c3)ncc2c1` [Compound I-21, 1-[3-(6-tert-Butyl-8-fluoro-1-oxo-1H-phthalazin-2-yl)-phenyl]-3-[4-(morpholine-4-carbonyl)-phenylamino]-1H-pyrazole-4-carboxylic acid amide] gave a concentration for half-maximal inhibition (IC50) of 0.26 µM.

In turn, `CC(C)(C)c1cc(F)c2c(=O)n(-c3cccc(-n4cc(C(N)=O)c5ccc(N6CCS(=O)(=O)CC6)nc54)c3CO)ncc2c1` [Compound I-50, 1-[3-(6-tert-Butyl-8-fluoro-1-oxo-1H-phthalazin-2-yl)-2-hydroxymethyl-phenyl]-6-(1,1-dioxo-1λ^6-thiomorpholin-4-yl)-1H-pyrrolo[2,3-b]pyridine-3-carboxylic acid amide] had an IC50 in assay [1] of 0.0127 µM.

In turn, `CN(C)CCNc1ccc2c(C(N)=O)cn(-c3cccc(-n4ncc5cc(C(C)(C)C)cc(F)c5c4=O)c3CO)c2n1` [Compound I-51, 1-[3-(6-tert-Butyl-8-fluoro-1-oxo-1H-phthalazin-2-yl)-2-hydroxymethyl-phenyl]-6-(2-dimethylamino-ethylamino)-1H-pyrrolo[2,3-b]pyridine-3-carboxylic acid amide] came in with a half-maximal inhibitory concentration (IC50) in assay [1] of 3.56 µM.

On to `CN(C)Cc1ccc2c(C(N)=O)cn(-c3cccc(-n4ncc5cc(C(C)(C)C)cc(F)c5c4=O)c3CO)c2n1` [Compound I-52, 1-[3-(6-tert-Butyl-8-fluoro-1-oxo-1H-phthalazin-2-yl)-2-hydroxymethyl-phenyl]-6-dimethylaminomethyl-1H-pyrrolo[2,3-b]pyridine-3-carboxylic acid amide], for which the IC50 in assay [2] was 1.07 µM.

For the compound `CC(=O)c1ccc(Nc2nn(-c3cccc(-n4ncc5cc(C(C)(C)C)ccc5c4=O)c3CO)cc2C(N)=O)cc1` [Compound I-53, 3-(4-Acetyl-phenylamino)-1-[3-(6-tert-butyl-1-oxo-1H-phthalazin-2-yl)-2-hydroxymethyl-phenyl]-1H-pyrazole-4-carboxylic acid amide], in assay [1], the IC50 is 0.00012 µM.

`CC(C)(C)c1ccc2c(=O)n(-c3cccc(-n4cc(C(N)=O)c(Nc5ccccn5)n4)c3CO)ncc2c1` [Compound I-54, 1-[3-(6-tert-Butyl-1-oxo-1H-phthalazin-2-yl)-2-hydroxymethyl-phenyl]-3-(pyridin-2-ylamino)-1H-pyrazole-4-carboxylic acid amide] registered an IC50 in assay [1] of 0.00095 µM.

With `CN(C)Cc1ccc(Nc2nn(-c3cccc(-n4ncc5cc(C(C)(C)C)ccc5c4=O)c3CO)cc2C(N)=O)nc1` [Compound I-55, 1-[3-(6-tert-Butyl-1-oxo-1H-phthalazin-2-yl)-2-hydroxymethyl-phenyl]-3-(5-dimethylaminomethyl-pyridin-2-ylamino)-1H-pyrazole-4-carboxylic acid amide], the IC50 in assay [1] was 0.00039 µM.

With `CC(C)(C)c1cc(F)c2c(=O)n(-c3cccc(-n4cc(C(N)=O)cn4)c3)ncc2c1` [Compound I-56, 1-[3-(6-tert-Butyl-8-fluoro-1-oxo-1H-phthalazin-2-yl)-phenyl]-1H-pyrazole-4-carboxylic acid amide], the half-maximal inhibitory concentration (IC50) in assay [1] stood at 3.7 µM.
